Measurements as given in ChEMBL document CHEMBL4622878, “Cytotoxic Activity of Germacrane-Type Sesquiterpene Lactones from Dimerostemma aspilioides” (J Nat Prod, 2020).
pIC50: −log10 of the molar value. Calls of active or inactive are those of the source. The calls are words filed in the database; no cut-off is given here.

Legend:
K562 [1] = assay: Induction of cell cycle arrest in human K562 cells at 2.3 uM after 48 hrs by propidium iodide staining based flow cytometric analysis; assay type: functional
K562 [2] = assay: Induction of morphological changes in human K562 cells assessed as appearance of apoptotic bodies at 2.3 uM incubated for 48 hrs by DAPI staining based fluorescence microscopy; assay type: functional, cell-based
K562-Lucena 1 [3] = assay: Induction of cell cycle arrest in human K562-Lucena 1 cells assessed as viable cells at 5.1 uM after 24 hrs by propidium iodide staining based flow cytometric analysis (reference value: 88%); assay type: functional; conditions: K562-Lucena 1, 24 h, read-out: Activity
K562 [4] = assay: Induction of cell cycle arrest in human K562 cells assessed as increase in hypodiploid cells at sub-G1 phase at 2.3 uM after 48 hrs by propidium iodide staining based flow cytometric analysis; assay type: functional
K562 [5] = assay: Cytotoxicity against human K562 cells after 48 hrs by MTT assay; assay type: functional, cell-based; conditions: K562, 48 h
K562-Lucena 1 [6] = assay: Induction of morphological changes in human K562-Lucena 1 cells assessed as appearance of apoptotic bodies at 5.1 uM incubated for 48 hrs by DAPI staining based fluorescence microscopy; assay type: functional, cell-based
K562-Lucena 1 [7] = assay: Induction of morphological changes in human K562-Lucena 1 cells assessed as appearance of condensed chromatin at 5.1 uM incubated for 48 hrs by DAPI staining based fluorescence microscopy; assay type: functional, cell-based
K562 [8] = assay: Induction of apoptosis in human K562 cells assessed as early apoptotic cells at 2.3 uM after 24 hrs by Annexin V-FITC/PI double staining based flow cytometry analysis (reference value: 2.76%); assay type: functional
K562-Lucena 1 [9] = assay: Induction of cell cycle arrest in human K562-Lucena 1 cells assessed as decrease in accumulation of cells at G1 phase at 5.1 uM after 24 hrs by propidium iodide staining based flow cytometric analysis; assay type: functional
CCRF-CEM = assay: Cytotoxicity against human CCRF-CEM cells after 48 hrs by MTT assay; assay type: functional, cell-based
K562 [10] = assay: Induction of DNA fragmentation in human K562 cells at 2.3 uM incubated for 48 hrs by DAPI staining based fluorescence microscopy; assay type: functional, cell-based
K562-Lucena 1 [11] = assay: Induction of cell cycle arrest in human K562-Lucena 1 cells assessed as late apoptotic cells at 5.1 uM after 48 hrs by propidium iodide staining based flow cytometric analysis (reference value: 3.23%); assay type: functional
K562-Lucena 1 [12] = assay: Induction of cell cycle arrest in human K562-Lucena 1 cells at 5.1 uM after 48 hrs by propidium iodide staining based flow cytometric analysis; assay type: functional
K562-Lucena 1 [13] = assay: Induction of cell cycle arrest in human K562-Lucena 1 cells assessed as accumulation of cells at G2/M phase at 5.1 uM after 24 hrs by propidium iodide staining based flow cytometric analysis (reference value: 3.3 +/- 0.1%); assay type: functional
K562 [14] = assay: Induction of morphological changes in human K562 cells assessed as appearance of condensed chromatin at 2.3 uM incubated for 48 hrs by DAPI staining based fluorescence microscopy; assay type: functional, cell-based
K562-Lucena 1 [15] = assay: Induction of cell cycle arrest in human K562-Lucena 1 cells assessed as increase in hypodiploid cells at sub-G1 phase at 5.1 uM after 48 hrs by propidium iodide staining based flow cytometric analysis; assay type: functional
K562-Lucena 1 [16] = assay: Induction of cell cycle arrest in human K562-Lucena 1 cells assessed as viable cells at 5.1 uM after 48 hrs by propidium iodide staining based flow cytometric analysis (reference value: 87.1%); assay type: functional; conditions: K562-Lucena 1, 48 h, read-out: Activity
K562-Lucena 1 [17] = assay: Induction of DNA fragmentation in human K562-Lucena 1 cells at 5.1 uM incubated for 48 hrs by DAPI staining based fluorescence microscopy; assay type: functional, cell-based
K562-Lucena 1 [18] = assay: Induction of cell cycle arrest in human K562-Lucena 1 cells assessed as late apoptotic cells at 5.1 uM after 24 hrs by propidium iodide staining based flow cytometric analysis (reference value: 3.15%); assay type: functional
K562-Lucena 1 [19] = assay: Induction of cell cycle arrest in human K562-Lucena 1 cells assessed as early apoptotic cells at 5.1 uM after 48 hrs by propidium iodide staining based flow cytometric analysis (reference value: 7.57%); assay type: functional
K562 [20] = assay: Induction of cell cycle arrest in human K562 cells assessed as decrease in accumulation of cells at S phase at 2.3 uM after 24 hrs by propidium iodide staining based flow cytometric analysis; assay type: functional
K562 [21] = assay: Induction of apoptosis in human K562 cells assessed as viable cells at 2.3 uM after 48 hrs by Annexin V-FITC/PI double staining based flow cytometry analysis (Rvb =97.8%); assay type: functional; conditions: K562, 48 h, read-out: Activity
K562-Lucena 1 [22] = assay: Cytotoxicity against human K562-Lucena 1 cells after 48 hrs by MTT assay; assay type: functional, cell-based; conditions: K562-Lucena 1, 48 h
K562 [23] = assay: Induction of cell cycle arrest in human K562 cells assessed as decrease in accumulation of cells at G1 phase at 2.3 uM after 24 hrs by propidium iodide staining based flow cytometric analysis; assay type: functional
K562 [24] = assay: Induction of apoptosis in human K562 cells assessed as viable cells at 2.3 uM after 24 hrs by Annexin V-FITC/PI double staining based flow cytometry analysis (Rvb =96.4%); assay type: functional; conditions: K562, 24 h, read-out: Activity
K562 [25] = assay: Induction of apoptosis in human K562 cells assessed as late apoptotic cells at 2.3 uM after 24 hrs by Annexin V-FITC/PI double staining based flow cytometry analysis (reference value: 0.79%); assay type: functional
K562-Lucena 1 [26] = assay: Induction of cell cycle arrest in human K562-Lucena 1 cells assessed as necrotic cells at 5.1 uM after 48 hrs by propidium iodide staining based flow cytometric analysis (reference value: 2.15%); assay type: functional
K562 [27] = assay: Induction of apoptosis in human K562 cells assessed as late apoptotic cells at 2.3 uM after 48 hrs by Annexin V-FITC/PI double staining based flow cytometry analysis (reference value: 0.41%); assay type: functional
K562-Lucena 1 [28] = assay: Induction of cell cycle arrest in human K562-Lucena 1 cells assessed as necrotic cells at 5.1 uM after 24 hrs by propidium iodide staining based flow cytometric analysis (reference value: 1.03%); assay type: functional
K562-Lucena 1 [29] = assay: Induction of cell cycle arrest in human K562-Lucena 1 cells assessed as early apoptotic cells at 5.1 uM after 24 hrs by propidium iodide staining based flow cytometric analysis (reference value: 7.79%); assay type: functional
K562 [30] = assay: Induction of cell cycle arrest in human K562 cells assessed as accumulation of cells at G2/M phase at 2.3 uM after 24 hrs by propidium iodide staining based flow cytometric analysis (reference value: 0.4 +/- 0.2%); assay type: functional
K562 [31] = assay: Induction of apoptosis in human K562 cells assessed as necrotic cells at 2.3 uM after 48 hrs by Annexin V-FITC/PI double staining based flow cytometry analysis (reference value: 0.13%); assay type: functional
PBMC = assay: Cytotoxicity against PBMC (unknown origin) after 48 hrs by MTT assay; assay type: cell-based
ADR5000 cell line = assay: Cytotoxicity against human CEM/ADR5000 cells after 48 hrs by MTT assay; assay type: functional, cell-based; conditions: ADR5000, 48 h
K562 [32] = assay: Induction of apoptosis in human K562 cells assessed as necrotic cells at 2.3 uM after 24 hrs by Annexin V-FITC/PI double staining based flow cytometry analysis (reference value: 0.085%); assay type: functional
K562 [33] = assay: Induction of apoptosis in human K562 cells assessed as early apoptotic cells at 2.3 uM after 48 hrs by Annexin V-FITC/PI double staining based flow cytometry analysis (reference value: 1.67%); assay type: functional

C=C(C)C(=O)O[C@H]1C/C(CO)=C/CC[C@@]2(C)O[C@H]2[C@H]2OC(=O)C(=C)[C@@H]21
Activity (K562 [1]): inactive | Activity (K562 [2]): Active | viability at 5.1 µM (K562-Lucena 1 [3]): 80.4% | Activity (K562 [4]): Active | pIC50 (K562 [5]): 5.64 | Activity (K562-Lucena 1 [6]): Active | Activity (K562-Lucena 1 [7]): Active | Activity (K562 [8]): 2.26% | Activity (K562-Lucena 1 [9]): Active | pIC50 (CCRF-CEM): 6.38 | Activity (K562 [10]): Active | Activity (K562-Lucena 1 [11]): 10.8% | Activity (K562-Lucena 1 [12]): inactive | Activity (K562-Lucena 1 [13]): 23.2% | Activity (K562 [14]): Active | Activity (K562-Lucena 1 [15]): Active | viability at 5.1 µM (K562-Lucena 1 [16]): 54.5% | Activity (K562-Lucena 1 [17]): Active | Activity (K562-Lucena 1 [18]): 3.46% | Activity (K562-Lucena 1 [19]): 31.4% | Activity (K562 [20]): inactive | viability at 2.3 µM (K562 [21]): 66.4% | pIC50 (K562-Lucena 1 [22]): 5.29 | Activity (K562 [23]): inactive | viability at 2.3 µM (K562 [24]): 96.7% | Activity (K562 [25]): 0.64% | Activity (K562-Lucena 1 [26]): 3.29% | Activity (K562 [27]): 2.38% | Activity (K562-Lucena 1 [28]): 1.38% | Activity (K562-Lucena 1 [29]): 14.7% | Activity (K562 [30]): 15.1% | Activity (K562 [31]): 0.56% | pIC50 (PBMC): 4.10 | pIC50 (ADR5000 cell line): 6.40 | Activity (K562 [32]): 0.42% | Activity (K562 [33]): 30.6%
